The values below come from patent US20250059207A1, “6,6-FUSED HETEROCYCLIC COMPOUNDS AS METTL3 INHIBITORS” (858 Therapeutics, Inc., priority 2021, published 2025).

This test concerns MOLM-13 cells. Nature of the test: Viability assay in MOLM-13 cells (CellTiter-Glo 2.0). Format: cell-based, human. To be noted: read-out: MOLM-13 IC50 (cell viability).
Where [1] appears, read: MOLM-13 human AML cells, 72 hours, CellTiter-Glo 2.0.

pIC50: −log10 of the molar value. Like-named read-outs stand apart in the source and are kept apart here.

Method: Effects of test compounds on the proliferation and viability of human AML cells was evaluated using the MOLM-13 cell line (AddexBio Technologies cat. no. C0003003). […] Test compounds or controls (Bortezomib or DMSO) diluted in 2% DMSO/media were added to each well for final concentrations of 0.2% DMSO and 0.1-1 μM Bortezomib. The cells were incubated for 72 hours at 37° C. and 5% CO2. At the end of the 72 hour incubation, plates were removed from the incubator, cooled to room temperature and equal volume of CellTiter-Glo 2.0 (Promega) added to each well. After mixing and incubating the plate at room temperature for 10 minutes the luminescence was read using a plate reader. […] Concentration-response-curves and IC50 values were generated using Collaborative Drug Discovery software.

In general, pIC50 refers to the IC50 on a negative log10 scale, so that one unit is a factor of ten. `O=c1c2cncc(N3CC4(CCOCC4)C3)c2ccn1Cc1cn2cc(CN3CC4(CCC4)C3)ccc2n1` [Compound 128, 2-{[6-({2-azaspiro[3.3]heptan-2-yl}methyl)imidazo[1,2-a]pyridin-2-yl]methyl}-5-{7-oxa-2-azaspiro[3.5]nonan-2-yl}-1,2-dihydro-2,7-naphthyridin-1-one]: the pIC50 under setting [1] was 5.00 to 6.00.

For `O=c1c2cncc(N3CC4(CCOCC4)C3)c2ccn1Cc1cn2cc(CN3CCC4(CCC4)CC3)ccc2n1` [Compound 129, 2-((6-((7-azaspiro[3.5]nonan-7-yl)methyl)imidazo[1,2-a]pyridin-2-yl)methyl)-5-(7-oxa-2-azaspiro[3.5]nonan-2-yl)-2,7-naphthyridin-1(2H)-one], the negative logarithm of the IC50 (pIC50) under setting [1] is 5.00 to 6.00.

Consider `O=c1c2cncc(N3CC4(CCOCC4)C3)c2ccn1Cc1cn2cc(CN3CCC4(CCOC4)C3)ccc2n1` (stereo not shown) [Compound 130, 5-{7-oxa-2-azaspiro[3.5]nonan-2-yl}-2-{[6-({2-oxa-7-azaspiro[4.4]nonan-7-yl}methyl)imidazo[1,2-a]pyridin-2-yl]methyl}-1,2-dihydro-2,7-naphthyridin-1-one], for which the pIC50 under setting [1] was 5.00 to 6.00.

`O=c1c2cncc(N3CC4(CCOCC4)C3)c2ccn1Cc1cn2cc(CN3CCC(C(F)(F)F)CC3)ccc2n1` [Compound 132, 5-{7-oxa-2-azaspiro[3.5]nonan-2-yl}-2-[(6-{[4-(trifluoromethyl)piperidin-1-yl]methyl}imidazo[1,2-a]pyridin-2-yl)methyl]-1,2-dihydro-2,7-naphthyridin-1-one]: the pIC50 under setting [1] is 5.00 to 6.00.

Take `CC1(C#N)CCN(Cc2ccc3nc(Cn4ccc5c(N6CC7(CCOCC7)C6)cncc5c4=O)cn3c2)CC1` [Compound 134, 4-methyl-1-({2-[(5-{7-oxa-2-azaspiro[3.5]nonan-2-yl}-1-oxo-1,2-dihydro-2,7-naphthyridin-2-yl)methyl]imidazo[1,2-a]pyridin-6-yl}methyl)piperidine-4-carbonitrile]: the pIC50 under setting [1] was under 5.00.

Regarding `O=c1c2cncc(N3CC4(CCOCC4)C3)c2ccn1Cc1cn2cc(CN3CC4(C3)CC(F)(F)C4)ccc2n1` [Compound 135, 2-{[6-({6,6-difluoro-2-azaspiro[3.3]heptan-2-yl}methyl)imidazo[1,2-a]pyridin-2-yl]methyl}-5-{7-oxa-2-azaspiro[3.5]nonan-2-yl}-1,2-dihydro-2,7-naphthyridin-1-one], the pIC50 under setting [1] was 5.00 to 6.00.

As to `O=c1c2cncc(N3CC4(CCOCC4)C3)c2ccn1Cc1cn2cc(CN3CC4(CC(F)C4)C3)ccc2n1` [Compound 136, 2-{[6-({6-fluoro-2-azaspiro[3.3]heptan-2-yl}methyl)imidazo[1,2-a]pyridin-2-yl]methyl}-5-{7-oxa-2-azaspiro[3.5]nonan-2-yl}-1,2-dihydro-2,7-naphthyridin-1-one], the pIC50 under setting [1] is 5.00 to 6.00.

As for `O=c1c2cncc(N3CC4(CCOCC4)C3)c2ccn1Cc1cn2cc(CN3CCC4(CCCC4)C3)ccc2n1` [Compound 137], the pIC50 under setting [1] is 5.00 to 6.00.

`CC1CCN(Cc2ccc3nc(Cn4ccc5c(N6CC7(CCOCC7)C6)cncc5c4=O)cn3c2)CC1` [Compound 138, 2-({6-[(4-methylpiperidin-1-yl)methyl]imidazo[1,2-a]pyridin-2-yl}methyl)-5-{7-oxa-2-azaspiro[3.5]nonan-2-yl}-1,2-dihydro-2,7-naphthyridin-1-one]: the negative logarithm of the IC50 (pIC50) under setting [1] is 5.00 to 6.00.

For `O=c1c2cncc(N3CC4(CCOCC4)C3)c2ccn1Cc1cn2cc(CN3CCC4(C3)CC(F)(F)C4)ccc2n1` [Compound 140, 2-{[6-({2,2-difluoro-6-azaspiro[3.4]octan-6-yl}methyl)imidazo[1,2-a]pyridin-2-yl]methyl}-5-{7-oxa-2-azaspiro[3.5]nonan-2-yl}-1,2-dihydro-2,7-naphthyridin-1-one], under setting [1], the pIC50 was 5.00 to 6.00.

For `O=c1c2cncc(N3CC4(CCOCC4)C3)c2ccn1Cc1cn2cc(CN3CCC4(CC3)CC4(F)F)ccc2n1` [Compound 141, 2-{[6-({1,1-difluoro-6-azaspiro[2.5]octan-6-yl}methyl)imidazo[1,2-a]pyridin-2-yl]methyl}-5-{7-oxa-2-azaspiro[3.5]nonan-2-yl}-1,2-dihydro-2,7-naphthyridin-1-one], under setting [1], the negative logarithm of the IC50 (pIC50) was under 5.00.

On to `O=c1c2cncc(N3CC4(C3)CC(F)(F)C4)c2ccn1Cc1cn2cc(CNCC3CC(F)C3)ccc2n1` (stereo not shown) [Compound 142, 5-{6,6-difluoro-2-azaspiro[3.3]heptan-2-yl}-2-{[6-({[(3-fluorocyclobutyl)methyl]amino}methyl)imidazo[1,2-a]pyridin-2-yl]methyl}-1,2-dihydro-2,7-naphthyridin-1-one], for which, under setting [1], the pIC50 was 5.00 to 6.00.

As for `O=c1c2cncc(N3CC4(COC4)C3)c2ccn1Cc1cn2cc(CNCC3CC(F)C3)ccc2n1` (stereo not shown) [Compound 143, 2-{[6-({[(3-fluorocyclobutyl)methyl]amino}methyl)imidazo[1,2-a]pyridin-2-yl]methyl}-5-{2-oxa-6-azaspiro[3.3]heptan-6-yl}-1,2-dihydro-2,7-naphthyridin-1-one], the pIC50 under setting [1] was 5.00 to 6.00.

For the compound `O=c1c2cncc(N3CC4(CCCOC4)C3)c2ccn1Cc1cn2cc(CNCC3CC(F)C3)ccc2n1` (stereo not shown) [Compound 145, 2-{[6-({[(3-fluorocyclobutyl)methyl]amino}methyl)imidazo[1,2-a]pyridin-2-yl]methyl}-5-{6-oxa-2-azaspiro[3.5]nonan-2-yl}-1,2-dihydro-2,7-naphthyridin-1-one], the pIC50 under setting [1] is 5.00 to 6.00.

Regarding `O=c1c2cncc(N3CC4(CCC(F)(F)CC4)C3)c2ccn1Cc1cn2cc(CNCC3CC(F)C3)ccc2n1` (stereo not shown) [Compound 146, 5-{7,7-difluoro-2-azaspiro[3.5]nonan-2-yl}-2-{[6-({[(3-fluorocyclobutyl)methyl]amino}methyl)imidazo[1,2-a]pyridin-2-yl]methyl}-1,2-dihydro-2,7-naphthyridin-1-one], under setting [1], the negative-log IC50 (pIC50) is 5.00 to 6.00.

`O=c1c2cncc(N3CCC4(C3)CC(F)(F)C4)c2ccn1Cc1cn2cc(CNCC3CC(F)C3)ccc2n1` (stereo not shown) [Compound 147, 5-{2,2-difluoro-6-azaspiro[3.4]octan-6-yl}-2-{[6-({[(3-fluorocyclobutyl)methyl]amino}methyl)imidazo[1,2-a]pyridin-2-yl]methyl}-1,2-dihydro-2,7-naphthyridin-1-one]: the pIC50 under setting [1] was 5.00 to 6.00.

With `O=c1c2cncc(N3CC(N4CCC(F)CC4)C3)c2ccn1Cc1cn2cc(CNCC3CC(F)C3)ccc2n1` (stereo not shown) [Compound 148, 2-{[6-({[(3-fluorocyclobutyl)methyl]amino}methyl)imidazo[1,2-a]pyridin-2-yl]methyl}-5-[3-(4-fluoropiperidin-1-yl)azetidin-1-yl]-1,2-dihydro-2,7-naphthyridin-1-one], the pIC50 under setting [1] is 5.00 to 6.00.

In the case of `O=c1c2cncc(N3CC(c4ccncc4)C3)c2ccn1Cc1cn2cc(CNCC3CC(F)C3)ccc2n1` (stereo not shown) [Compound 149, 2-{[6-({[(3-fluorocyclobutyl)methyl]amino}methyl)imidazo[1,2-a]pyridin-2-yl]methyl}-5-[3-(pyridin-4-yl)azetidin-1-yl]-1,2-dihyro-2,7-naphthyridin-1-one], under setting [1], the pIC50 is 5.00 to 6.00.

In the case of `O=c1c2cncc(N3CC(c4ccc(F)cc4)C3)c2ccn1Cc1cn2cc(CNCC3CC(F)C3)ccc2n1` (stereo not shown) [Compound 150, 2-{[6-({[(3-fluorocyclobutyl)methyl]amino}methyl)imidazo[1,2-a]pyridin-2-yl]methyl}-5-[3-(4-fluorophenyl)azetidin-1-yl]-1,2-dihydro-2,7-naphthyridin-1-one], the negative logarithm of the IC50 (pIC50) under setting [1] was 5.00 to 6.00.

For the compound `O=c1c2cncc(N3CC4(CCOC4)C3)c2ccn1Cc1cn2cc(CNCC34CC(F)(C3)C4)ccc2n1` [Compound 151, 2-((6-((((3-fluorobicyclo[1.1.1]pentan-1-yl)methyl)amino)methyl)imidazo[1,2-a]pyridin-2-yl)methyl)-5-(6-oxa-2-azaspiro[3.4]octan-2-yl)-2,7-naphthyridin-1(2H)-one], for the setting “Homo sapiens, MOLM-13, 72 h”, the pIC50 is over 6.00.

`O=c1c2cncc(N3CC4(CCCOC4)C3)c2ccn1Cc1cn2cc(CNCC34CC(F)(C3)C4)ccc2n1` [Compound 153, 2-[(6-{[({3-fluorobicyclo[1.1.1]pentan-1-yl}methyl)amino]methyl}imidazo[1,2-a]pyridin-2-yl)methyl]-5-{6-oxa-2-azaspiro[3.5]nonan-2-yl}-1,2-dihydro-2,7-naphthyridin-1-one]: under setting [1], the pIC50 is over 6.00.

Consider `O=c1c2cncc(-c3ccccc3F)c2ccn1Cc1cn2cc(CNCC34CC(F)(C3)C4)ccc2n1` [Compound 154, 2-[(6-{[({3-fluorobicyclo[1.1.1]pentan-1-yl}methyl)amino]methyl}imidazo[1,2-a]pyridin-2-yl)methyl]-5-(2-fluorophenyl)-1,2-dihydro-2,7-naphthyridin-1-one], for which, under setting [1], the pIC50 was 5.00 to 6.00.

As for `NC(=O)c1ccc(-c2cncc3c(=O)n(Cc4cn5cc(CNCC67CC(F)(C6)C7)ccc5n4)ccc23)cc1` [Compound 155, 4-{7-[(6-{[({3-fluorobicyclo[1.1.1]pentan-1-yl}methyl)amino]methyl}imidazo[1,2-a]pyridin-2-yl)methyl]-8-oxo-7,8-dihydro-2,7-naphthyridin-4-yl}benzamide], the pIC50 under setting [1] is 5.00 to 6.00.

Take `O=c1c2cncc(C3CCC3)c2ccn1Cc1cn2cc(CNCC3CC(F)C3)ccc2n1` (stereo not shown) [Compound 156, 5-cyclobutyl-2-{[6-({[(3-fluorocyclobutyl)methyl]amino}methyl)imidazo[1,2-a]pyridin-2-yl]methyl}-1,2-dihydro-2,7-naphthyridin-1-one]: the pIC50 under setting [1] was under 5.00.

Regarding `O=c1c2cncc(N3CC4(COC4)C3)c2cnn1Cc1cn2cc(CNCC34CC(F)(C3)C4)ccc2n1` [Compound 157, 3-[(6-{[({3-fluorobicyclo[1.1.1]pentan-1-yl}methyl)amino]methyl}imidazo[1,2-a]pyridin-2-yl)methyl]-8-{2-oxa-6-azaspiro[3.3]heptan-6-yl}pyrido[3,4-d]pyridazin-4-one], the negative logarithm of the IC50 (pIC50) under setting [1] is 5.00 to 6.00.
